From the Kinase Knowledgebase extract (Sharma et al. 2016)

Columns and labels:
PIK3CA (human) [1] = biological target: PIK3CA (human) (UniProt P42336); test: Enzyme Assay
PIK3CD (Human) [2] = biological target: PIK3CD (Human) (UniProt O00329); test: Enzyme Assay
PIK3CG (human) = PIK3CG (human) (UniProt P48736); test: Enzyme Assay
PIK3CA (human) [3] = biological target: PIK3CA (human) (UniProt P42336); test: Cell-Based Assay; conditions: rat-1
PIK3CD (Human) [4] = biological target: PIK3CD (Human) (UniProt O00329); test: Cell-Based Assay; conditions: rat-1

Sequence of PIK3CG (human) (P48736 whole entry, looked up): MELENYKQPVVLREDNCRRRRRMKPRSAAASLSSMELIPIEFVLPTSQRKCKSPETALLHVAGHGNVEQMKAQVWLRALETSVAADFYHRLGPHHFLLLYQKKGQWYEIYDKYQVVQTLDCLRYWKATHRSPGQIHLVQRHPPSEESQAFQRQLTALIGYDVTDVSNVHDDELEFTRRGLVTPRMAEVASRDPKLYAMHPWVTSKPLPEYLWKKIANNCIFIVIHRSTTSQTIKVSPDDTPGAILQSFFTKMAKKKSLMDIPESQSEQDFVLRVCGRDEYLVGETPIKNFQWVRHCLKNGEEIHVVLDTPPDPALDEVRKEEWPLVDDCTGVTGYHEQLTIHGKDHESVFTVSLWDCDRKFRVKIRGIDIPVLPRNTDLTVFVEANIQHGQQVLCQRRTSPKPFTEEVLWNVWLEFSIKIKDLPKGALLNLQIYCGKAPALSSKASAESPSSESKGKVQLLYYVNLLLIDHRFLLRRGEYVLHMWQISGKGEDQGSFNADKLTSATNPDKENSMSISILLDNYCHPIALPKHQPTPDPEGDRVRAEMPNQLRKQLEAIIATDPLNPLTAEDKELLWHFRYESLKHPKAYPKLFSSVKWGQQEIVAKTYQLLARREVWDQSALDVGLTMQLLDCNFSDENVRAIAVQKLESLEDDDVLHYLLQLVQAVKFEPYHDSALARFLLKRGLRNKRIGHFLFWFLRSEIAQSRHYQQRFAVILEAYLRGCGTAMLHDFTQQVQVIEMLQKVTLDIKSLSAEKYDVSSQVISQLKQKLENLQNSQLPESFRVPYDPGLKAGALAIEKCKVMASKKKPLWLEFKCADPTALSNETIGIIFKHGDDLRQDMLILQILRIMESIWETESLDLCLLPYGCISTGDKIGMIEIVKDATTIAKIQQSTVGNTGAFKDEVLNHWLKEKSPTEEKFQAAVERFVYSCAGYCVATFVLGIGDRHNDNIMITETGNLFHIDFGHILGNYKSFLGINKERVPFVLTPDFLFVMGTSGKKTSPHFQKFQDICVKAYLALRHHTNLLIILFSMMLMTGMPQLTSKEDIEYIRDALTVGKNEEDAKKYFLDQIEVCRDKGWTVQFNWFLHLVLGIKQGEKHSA
Sequence of PIK3CD (Human) (O00329 whole entry, looked up): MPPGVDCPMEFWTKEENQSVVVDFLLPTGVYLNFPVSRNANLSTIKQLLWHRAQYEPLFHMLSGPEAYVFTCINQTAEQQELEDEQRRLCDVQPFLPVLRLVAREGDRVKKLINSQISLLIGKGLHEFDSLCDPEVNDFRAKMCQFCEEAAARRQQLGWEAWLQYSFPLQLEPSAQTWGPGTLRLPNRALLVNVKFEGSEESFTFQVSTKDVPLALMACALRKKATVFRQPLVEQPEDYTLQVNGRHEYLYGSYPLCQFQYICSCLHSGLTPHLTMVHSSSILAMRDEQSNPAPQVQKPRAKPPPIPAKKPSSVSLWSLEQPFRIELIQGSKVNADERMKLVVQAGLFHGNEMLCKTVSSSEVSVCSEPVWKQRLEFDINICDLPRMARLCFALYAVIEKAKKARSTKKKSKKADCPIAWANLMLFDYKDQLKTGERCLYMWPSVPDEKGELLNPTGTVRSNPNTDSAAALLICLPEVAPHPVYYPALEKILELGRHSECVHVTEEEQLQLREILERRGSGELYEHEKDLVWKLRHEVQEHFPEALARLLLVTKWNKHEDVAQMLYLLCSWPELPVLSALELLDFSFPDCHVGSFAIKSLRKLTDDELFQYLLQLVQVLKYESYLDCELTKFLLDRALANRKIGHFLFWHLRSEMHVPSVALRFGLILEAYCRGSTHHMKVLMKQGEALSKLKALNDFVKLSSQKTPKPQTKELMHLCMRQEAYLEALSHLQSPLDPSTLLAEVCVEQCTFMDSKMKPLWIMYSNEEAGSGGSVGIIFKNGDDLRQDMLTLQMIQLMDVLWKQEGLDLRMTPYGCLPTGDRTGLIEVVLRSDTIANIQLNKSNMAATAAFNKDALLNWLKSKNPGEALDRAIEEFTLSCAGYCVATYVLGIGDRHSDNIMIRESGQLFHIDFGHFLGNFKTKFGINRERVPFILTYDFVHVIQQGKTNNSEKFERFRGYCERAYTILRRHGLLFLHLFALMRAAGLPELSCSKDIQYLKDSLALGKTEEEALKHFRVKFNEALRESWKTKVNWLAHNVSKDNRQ
Sequence of PIK3CA (human) (P42336 whole entry, looked up): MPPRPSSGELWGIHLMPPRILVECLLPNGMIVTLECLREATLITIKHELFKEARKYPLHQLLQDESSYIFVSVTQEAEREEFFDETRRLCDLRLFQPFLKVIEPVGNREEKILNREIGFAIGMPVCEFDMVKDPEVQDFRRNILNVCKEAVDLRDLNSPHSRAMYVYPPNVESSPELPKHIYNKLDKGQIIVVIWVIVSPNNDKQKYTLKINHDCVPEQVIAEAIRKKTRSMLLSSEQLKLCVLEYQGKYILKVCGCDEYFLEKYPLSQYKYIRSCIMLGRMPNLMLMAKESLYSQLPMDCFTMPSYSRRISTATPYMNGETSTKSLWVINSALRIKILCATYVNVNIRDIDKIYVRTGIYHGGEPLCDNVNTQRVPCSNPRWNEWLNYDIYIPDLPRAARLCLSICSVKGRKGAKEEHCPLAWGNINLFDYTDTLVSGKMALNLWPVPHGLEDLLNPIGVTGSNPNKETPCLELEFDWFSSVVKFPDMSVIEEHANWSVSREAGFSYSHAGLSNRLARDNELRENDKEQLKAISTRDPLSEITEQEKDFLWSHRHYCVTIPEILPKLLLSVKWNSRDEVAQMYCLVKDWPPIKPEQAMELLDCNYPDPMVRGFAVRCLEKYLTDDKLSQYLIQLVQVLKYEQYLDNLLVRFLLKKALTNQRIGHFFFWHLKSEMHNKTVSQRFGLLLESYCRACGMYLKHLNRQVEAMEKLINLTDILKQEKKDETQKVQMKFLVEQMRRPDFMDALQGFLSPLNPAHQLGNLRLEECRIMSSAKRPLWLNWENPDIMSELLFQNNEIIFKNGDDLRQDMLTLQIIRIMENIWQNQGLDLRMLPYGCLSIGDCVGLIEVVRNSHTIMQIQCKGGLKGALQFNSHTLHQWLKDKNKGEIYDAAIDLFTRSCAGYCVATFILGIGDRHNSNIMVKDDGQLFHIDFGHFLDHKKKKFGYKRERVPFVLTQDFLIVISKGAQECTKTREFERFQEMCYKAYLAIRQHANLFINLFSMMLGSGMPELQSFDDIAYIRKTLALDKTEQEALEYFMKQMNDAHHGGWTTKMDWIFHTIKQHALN

| SMILES | IC50 (PIK3CA (human) [1]) | IC50 (PIK3CD (Human) [2]) | IC50 (PIK3CG (human)) | IC50 (PIK3CA (human) [3]) | IC50 (PIK3CD (Human) [4]) |
| --- | --- | --- | --- | --- | --- |
| Cn1cnc2c(N3CCC[C@H]3c3nc4cccc(Cl)c4c(=O)n3C3CC3)nc(N)nc21 | 5.95 µM | 1.43 µM | 0.445 µM | 5.46 µM | 0.894 µM |
| O=c1c2c(F)cc(F)cc2nc([C@@H]2CCCN2c2ncnc3[nH]cnc23)n1-c1ccccc1 | > 10 µM | 0.12 µM | > 10 µM | > 10 µM | 0.733 µM |
| Cc1ccc(-n2c([C@@H]3CSCN3c3ncnc4[nH]cnc34)nc3cccc(Cl)c3c2=O)s1 | > 10 µM | 0.14 µM | 0.82 µM | > 10 µM | 0.509 µM |
| O=c1c2c(Cl)cccc2nc([C@@H]2CCON2c2ncnc3[nH]cnc23)n1-c1ccccc1 |  | 0.15 µM | 0.98 µM | > 10 µM | 1.81 µM |
| O=c1c2c(Cl)cccc2nc([C@@H]2CCCN2c2ncnn3ccnc23)n1-c1ccccc1 | 4.67 µM | 0.034 µM | 0.103 µM | 5.15 µM | 0.056 µM |
| O=c1c2c(Cl)cccc2nc([C@@H]2CCCN2c2ncnc3[nH]cnc23)n1[C@@H]1CCN(S(=O)(=O)C2CC2)C1 | > 10 µM | 0.51 µM | 5.6 µM | > 10 µM |  |
| Cc1ccc(-n2c([C@@H]3CSCN3c3ncnc(N)c3C#N)nc3cccc(Cl)c3c2=O)s1 | > 10 µM | 0.082 µM | 1.1 µM | > 10 µM | 0.262 µM |
| COC(=O)N1CC[C@H](n2c([C@@H]3CCCN3c3ncnc4[nH]cnc34)nc3cccc(Cl)c3c2=O)C1 | 9.3 µM | 0.44 µM | > 10 µM | > 10 µM | 1.15 µM |
| Cn1nccc1-n1c([C@@H]2CSCN2c2ncnc3[nH]cnc23)nc2cccc(Cl)c2c1=O |  | 0.056 µM | 0.42 µM | > 10 µM | 0.222 µM |
| COC(=O)N1CC[C@@H](n2c([C@@H]3CCCN3c3ncnc4[nH]cnc34)nc3cccc(Cl)c3c2=O)C1 | > 10 µM | 0.2 µM | > 10 µM | > 10 µM | 2.35 µM |
| CO[C@H]1C[C@@H](c2nc3cccc(Cl)c3c(=O)n2C2CC2)N(c2nc(N)nc(C)c2C#N)C1 | 1.32 µM | 0.104 µM | 0.22 µM | 3.54 µM | 0.073 µM |
| Cn1nccc1-n1c([C@@H]2CSCN2c2ncnc(N)c2C#N)nc2cccc(Cl)c2c1=O | > 10 µM | 7.2 µM | > 10 µM | > 10 µM | > 10 µM |
| CO[C@H]1C[C@@H](c2nc3cccc(Cl)c3c(=O)n2N2CCOCC2)N(c2ncnc(N)c2C#N)C1 | 4 µM | 0.066 µM | 0.38 µM | > 10 µM | 0.032 µM |
| CN(C)n1c([C@@H]2CCCN2c2ncnc3[nH]cnc23)nc2cccc(Cl)c2c1=O | 2 µM | 0.089 µM | 0.32 µM | 7.68 µM | 0.109 µM |
| Cc1ccccc1-n1c([C@@H]2CCON2c2ncnc3[nH]cnc23)nc2cccc(Cl)c2c1=O | > 10 µM | 0.1 µM | 1.2 µM | > 10 µM | 2.48 µM |
| COc1ccc(-n2c([C@@H]3CCCN3c3ncnc(N)c3C#N)nc3cccc(Cl)c3c2=O)cn1 | > 10 µM | 0.24 µM | 0.46 µM | > 10 µM | 0.152 µM |
| CS(=O)(=O)N1CC[C@@H](n2c([C@@H]3CCCN3c3ncnc4[nH]cnc34)nc3cccc(Cl)c3c2=O)C1 | > 10 µM | 0.21 µM | 3.7 µM | > 10 µM |  |

These reach a lower IC50 (PIK3CD (Human) [2]). Values come first.

| IC50 (PIK3CA (human) [1]) | IC50 (PIK3CD (Human) [2]) | IC50 (PIK3CG (human)) | IC50 (PIK3CA (human) [3]) | IC50 (PIK3CD (Human) [4]) | SMILES |
| --- | --- | --- | --- | --- | --- |
| 0.93 µM | 0.031 µM | 0.11 µM | 1.16 µM | 0.061 µM | Cc1nc(N)nc(N2CCC[C@H]2c2nc3cccc(Cl)c3c(=O)n2C2CC2)c1C#N |
| 1.03 µM | 0.026 µM | 0.058 µM | 3.3 µM | 0.032 µM | CC1(n2c([C@@H]3CCCN3c3nc(N)nc4[nH]cnc34)nc3cccc(Cl)c3c2=O)CC1 |
| 3.1 µM | 0.023 µM | 0.23 µM | > 10 µM | < 0.003 µM | N#Cc1cnc(N)nc1N1CCC[C@H]1c1nc2cccc(C(F)(F)F)c2c(=O)n1-c1ccccc1 |
| 1.1 µM | 0.021 µM | 0.19 µM | 3.53 µM | 0.026 µM | CN(C)n1c([C@@H]2CCCN2c2ncnc(N)c2C#N)nc2cccc(Cl)c2c1=O |
| 3.3 µM | 0.02 µM | 0.17 µM | > 10 µM | 0.084 µM | O=c1c2c(Cl)cccc2nc([C@@H]2CCCN2c2ncnc3[nH]cnc23)n1-c1cccnc1 |
| > 10 µM | 0.016 µM | 1.1 µM | > 10 µM | 0.013 µM | N#Cc1c(N)ncnc1N1CCC[C@H]1c1nc2cccc(Cl)c2c(=O)n1C1CCCCC1 |
| 1 µM | 0.015 µM | 0.031 µM |  |  | Nc1nc(N2C[C@@H](O)C[C@H]2c2nc3cccc(Cl)c3c(=O)n2-c2ccccc2)c2nccn2n1 |
| 0.6 µM | 0.014 µM | 0.041 µM | > 10 µM | < 0.003 µM | Cc1nc(N)nc(N2CCC[C@H]2c2nc3ccc(F)c(F)c3c(=O)n2-c2ccccc2)c1C#N |
| 7.7 µM | 0.014 µM | 0.15 µM | 4.59 µM | 0.012 µM | N#Cc1c(N)ncnc1N1CCC[C@H]1c1nc2cccc(Cl)c2c(=O)n1-c1cccnc1 |
| > 10 µM | 0.012 µM | 0.17 µM | > 10 µM | 0.121 µM | O=c1c2c(Cl)cccc2nc([C@@H]2CCCN2c2ncnc3[nH]cnc23)n1C1CCCCC1 |
| 6.82 µM | 0.011 µM | 0.148 µM | 4.47 µM | 0.038 µM | Cc1ccccc1-n1c([C@@H]2CSCN2c2ncnc(N)c2C#N)nc2cccc(Cl)c2c1=O |
| 0.7 µM | 0.011 µM | 0.12 µM | 7.16 µM | 0.025 µM | Cc1c(F)ccc2nc([C@@H]3CCCN3c3ncnc(N)c3C#N)n(-c3ccccc3)c(=O)c12 |
| 1.8 µM | 0.01 µM | 0.2 µM | > 10 µM | 0.198 µM | O=c1c2c(Cl)cccc2nc([C@@H]2CCCN2c2ncnc3[nH]cnc23)n1N1CCCCC1 |
| 1.8 µM | 0.008 µM | 0.066 µM | > 10 µM | 0.003 µM | N#Cc1c(N)ncnc1N1C[C@@H](O)C[C@H]1c1nc2cccc(C(F)(F)F)c2c(=O)n1-c1ccccc1 |
| 4.7 µM | 0.008 µM | 0.28 µM | > 10 µM | 0.036 µM | N#Cc1c(N)ncnc1N1CCC[C@H]1c1nc2cccc(Cl)c2c(=O)n1C1CCOCC1 |
| 1.5 µM | 0.007 µM | 0.081 µM | 5.99 µM | 0.057 µM | O=c1c2c(Cl)cccc2nc([C@@H]2CCON2c2ncnc3scnc23)n1-c1ccccc1 |
| 0.072 µM | 0.007 µM | 0.022 µM | 1.11 µM | 0.005 µM | Cc1nc(N)nc(N2CCC[C@H]2c2nc3cccc(Cl)c3c(=O)n2-c2ccccc2)c1C#N |
| 0.58 µM | 0.007 µM | 0.49 µM | 2.15 µM | 0.007 µM | CC1(n2c([C@@H]3CCCN3c3ncnc4[nH]cnc34)nc3cccc(Cl)c3c2=O)CC1 |
